Entries after “also recorded” stand apart in the source; their conditions may differ. Positions of bridges follow the written chain, without caps; N, C: chain ends. Residues, ends and D or L forms follow the SMILES beside them. No end group written: not given here.
How the values were obtained:
IGFBP-1 [1] = target: T1, IGFBP-1 (Homo sapiens, UniProt P08833); test: biotinylated-IGFBP-1 ELISA plate assay of IGF-I:IGFBP-1 inhibition; format: binding; set-up: made in house; host or cells: CHO cells
T1 sequence (P08833 26-259): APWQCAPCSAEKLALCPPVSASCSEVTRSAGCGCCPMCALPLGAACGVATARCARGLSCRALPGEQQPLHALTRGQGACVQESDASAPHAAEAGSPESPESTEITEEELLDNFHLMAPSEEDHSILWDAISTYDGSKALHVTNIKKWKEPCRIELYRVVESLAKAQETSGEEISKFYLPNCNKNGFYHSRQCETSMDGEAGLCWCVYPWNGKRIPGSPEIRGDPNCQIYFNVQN
From the text: A second series of peptides made use of non-natural amino acids to probe whether other structural features such as an added methyl group at the alpha carbon, or an isomer (D-alanine) could affect peptide binding to IGFBP-1.
BP1-16 (SEQ ID NO:35), a 13-residue version of BP1-01 (lacking the C-terminal Gly), had similar affinity to that of BP1-01. Substitutions at the N-terminus or C-terminus yielded affinity improvements.

IGFBP-3 [2] = target: T2, IGFBP-3 (Homo sapiens, UniProt P17936); test: competitive phage ELISA of IGF-1 mutants, IGFBP-3; format: binding; settings: phage display, soluble IGFBP-3 competitor
T2 construct: made in house
Summary of the method: (§1)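 Alanine-scan IGF-1 mutants on phage competed with soluble IGFBP-1 or IGFBP-3 (threefold dilutions over six logs, from 5 μM and 500 nM respectively) for binding to plates coated with 1 μg/ml of the same protein in PBS pH 7.2. Incubation was 1 h at room temperature in 0.5% Tween 20/PBS. Bound phage was detected by anti-phage/HRP ELISA; IC50 is the mean±SD of at least two clones.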

IGFBP-1 [3] = target: T1, IGFBP-1; test: competitive phage ELISA of IGF-1 mutants, IGFBP-1; format: binding; set-up: made in house; host or cells: CHO cells; settings: phage display, soluble IGFBP-1 competitor
Summary of the method: as §1

IGFBP-1 [4] = target: T1, IGFBP-1; settings: cited from earlier work
IGFBP-1 [5] = test: competitive phage ELISA of IGF-1 mutants, IGFBP-1; format: binding, human; settings: relative IC50 IGFBP-1/relative IC50 IGFBP-3
Summary of the method: as §1

[6] = system: human articular cartilage explants; test: human articular cartilage explants from diseased joints: matrix synthesis (35S-sulfate uptake); format: cell-based; settings: IGF-1 40 ng/ml; peptide 0.1 mg/ml
Method: (§2) The metacarpophalangeal joint of a six-month old pig was cultured as described above for bovine articular cartilage in Example 8. This explant was cultured in media alone or in media with D12K, D12R, or wild-type IGF-1 (at 10 nM) alone or in the presence of IL-1α at 1 ng/ml, as described above. Human explants were from patients undergoing joint replacement surgery. Articular cartilage was harvested, aliquoted (40-45 mg/tube) and cultured as above. […] Fresh media was added on days 0, 1, 2, and 3. Matrix breakdown was determined by measuring the amount of proteoglycans in the media using the DMMB assay as set forth above. Matrix (proteoglycan) synthesis was determined by measuring ^35S-sulfate uptake as set forth above.
(§3) Human articular cartilage explants were cultured in media or treated with IGF-1 by itself or in combination with either BP3-40 or BP3-15 at 0.1 mg/ml as set forth above. Matrix breakdown was determined by measuring the release of proteoglycans into media as described above. Matrix synthesis was determined by counting the amount of ^35S-sulfate incorporated into the cartilage tissue as described above.
The same Material and Methods (for human tissue) were used as described above, using articular cartilage explants from human joints removed from patients undergoing joint replacement. These explants were cultured with IGF-1 alone at 40 ng/ml, or IGF-1 with BP1-17, BP3-15, or BP1-16 (0.1 mg/ml), or IGF-1 with buffer (HEPES).

IGFBP-3 [7] = test: displacement of 125I-IGF-1 from IGFBPs in human serum, size-exclusion chromatography; format: binding; settings: peptide at 0.2 mM
Method: This Example tests an IGFBP-3-specific peptide, BP3-15, for its ability to block the binding of ^125I-IGF-1 in human serum. Human serum was incubated with ^125I-IGF-1 ± the peptide and the amount of tracer bound to IGFBPs via size-exclusion chromatography was measured.

IGFBP-3 [8] = target: T2, IGFBP-3; test: BIACORE competition assay: IGFBP-3 binding to immobilized IGF-1; settings: IGF-1 inhibition; wt = BP3-01-ox
[9] = system: human articular cartilage explants; test: human articular cartilage explants: matrix breakdown (proteoglycan release); format: cell-based; settings: peptide 0.1 mg/ml
Method: as §2, §3

IGFBP-1 [10] = target: T1, IGFBP-1; test: KIRA cell-based assay of IGF-like activity displaced by peptides from IGF-1/IGFBP-1; settings: 2 nM IGF-1, […] IGFBP-1
Method: A cell-based (KIRA) assay was previously described for measuring the amount of IGF-like activity displaced by peptides from mixtures of IGF-1 and binding proteins (Lowman et al., supra, 1998; WO 98/45427, supra). The KIRA assay was used to compare in vitro bioactivity of BP1-16, BP1-02, BP1-25, and BP1-40. […] IGF-1 and peptide were mixed and added to cells expressing IGF receptor for 30 min, then IGFBP-1 was added for an additional 1 h.

T2 sequence (P17936 28-291): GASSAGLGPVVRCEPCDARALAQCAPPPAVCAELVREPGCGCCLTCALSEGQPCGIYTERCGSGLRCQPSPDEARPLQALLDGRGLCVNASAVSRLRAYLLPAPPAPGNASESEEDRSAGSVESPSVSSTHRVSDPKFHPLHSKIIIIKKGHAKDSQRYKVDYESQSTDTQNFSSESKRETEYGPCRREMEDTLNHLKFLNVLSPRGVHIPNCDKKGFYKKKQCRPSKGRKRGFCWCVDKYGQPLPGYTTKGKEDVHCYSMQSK

Molecule: CRAGPLQHLCEKYF [BP1-24]
- Fold potency reduction IC50 (mut) / IC50 (BP1-16) (IGFBP-1 [1]): < 10

Molecule: R50A: IGF-1 single alanine mutant
- IC50 (IGFBP-3 [2]): 0.64 ± 0.18 nM
- IC50 (IGFBP-1 [3]): 16.2 ± 1.8 nM
- decrease in affinity for IGFBP-1 (IGFBP-1 [4]): 3 fold
- relative specificity (IGFBP-1 [5]): 2.3

Molecule: CC(C)C[C@@H]1NC(=O)[C@H](Cc2ccc(O)cc2)NC(=O)[C@H](Cc2c[nH]c3ccccc23)NC(=O)[C@H](CCC(=O)O)NC(=O)[C@H](C)NC(=O)[C@H](C(C)C)NC(=O)[C@@H]2CCCN2C(=O)[C@H](Cc2c[nH]c3ccccc23)NC(=O)[C@@H](NC(=O)[C@@H](NC(=O)[C@H](CCC(=O)O)NC(=O)[C@H](CCC(=O)O)NC(=O)[C@@H](N)CO)C(C)C)CSSC[C@@H](C(=O)N[C@@H](CC(N)=O)C(=O)O)NC1=O [BP3-15] (H-SEEVCWPVAEWYLCN-OH; disulfide 5-14; N-terminus and C-terminus assumed)
- matrix synthesis, IGF-1 in combination with peptide [6]: to stimulate matrix synthesis; also recorded: enhance anabolism
- 125I-IGF-1 binding to the 44-KD IGFBPs (IGFBP-3 [7]): did not decrease
- decrease in 125I-IGF-1 associated with the 150-KD IGF/IGFBP-3/ALS complex (IGFBP-3 [7]): ~42%
- increase in the amount of free 125I-IGF-1 (IGFBP-3 [7]): 59%
- IC50 (mut) / IC50 (wt) (IGFBP-3 [8]): 0.36
- matrix breakdown, IGF-1 in combination with peptide [9]: appeared to enhance the ability of IGF-1 to decrease matrix breakdown

Molecule: CRAGPLQWLCEKYF-nh2 (CRAGPLQWLCEKYF-NH2; disulfide 1-10 (inferred)) [BP1-16]
- matrix synthesis, IGF-1 in combination with peptide [6]: enhance anabolism
- Fold potency reduction IC50 (mut) / IC50 (BP1-16) (IGFBP-1 [1]): -1-
- EC20 (concentration at which 20% of maximal IGF-1 activity is observed) (IGFBP-1 [10]): 150 to 200 nM

Source: patent US7423017B2, “Method for treating cartilage disorders” (Genentech, Inc., priority 1997, dated 2008)
